Legend:
[1] = system: peripheral blood monocytes; experiment: Phenotypic analysis (Western blotting, immunofluorescence) of monocytes stimulated towards hepatocytic type + parasympatholytic; format: cell-based, human; parameters: key to expression of CD34: −−−−− = absence of any fluorescence; + = 1-5 fluorescent cells per optical field; ++ = 6-10 fluorescent cells per optical field; +++ = 10-20 fluorescent cells per optical field; ++++ = 20-50 fluorescent cells per optical field; +++++ > 50 fluorescent cells per optical field; settings: monocytes Hepatocytic type + parasympath. (HGF medium + 0.2 μg/mL scopolamine)
Description: (§1) Furthermore, samples of the same cells, taken every seventh day of incubation, have been incubated for 5-8 minutes with 2% lidocaine (Sigma Aldrich, Milan, Italy) in PBS and the solution thus obtained harvested, as described in the bibliography.
(§2) Western blotting first makes use of denaturing electrophoresis (SDS-PAGE) in order to separate the various proteins according to molecular weight, by cancelling out the charges on the amino acids which might influence migration. The cell samples, suspended in lysis buffer (1% SDS, 30 mM Tris pH 6.8, 5% glycerol) to which protease inhibitors (Protease Inhibitor Cocktail, Calbiochem, San Diego, Calif., USA) have been added, have been incubated for 30 minutes at 4° C. The lysates thus obtained have been centrifuged at 12,000 rpm for 20 minutes at 4° C. and the supernatants collected; the protein concentrations of the samples have been measured using the Bio-Rad method (Benchmark Plus assay, Bio-Rad). Prior to electrophoresis, the samples have been boiled for 5 minutes in the presence of beta-mercaptoethanol and bromophenol blue. The samples have been subjected to electrophoresis on a 12% gel (SDS-PAGE) and then transferred onto a PVDF membrane (Perkin Elmer Inc.). The membranes have been saturated with […] at room temperature and subsequently incubated overnight, at 4° C., with the following primary antibodies diluted 1:500 in PBS with 5% skimmed milk powder: anti-CD 34 (Santa Cruz Biotechnology, CA, USA), anti-CD 14 (Santa Cruz Biotechnology, CA, USA), anti-CD 45 (Santa Cruz Biotechnology, CA, USA), anti-CD 71 (Santa Cruz Biotechnology, CA, USA), anti-CD 90 (Santa Cruz Biotechnology, CA, USA), anti-CD 29 (Santa Cruz Biotechnology, CA, USA), anti-CD 105 (Santa Cruz Biotechnology, CA, USA), anti CD 117/c-KIT (Santa Cruz Biotechnology, CA, USA), anti c-MET (Santa Cruz Biotechnology, CA, USA), anti cytokeratin 7 (Santa Cruz Biotechnology, CA, USA), anti cytokeratin 8 (Santa Cruz Biotechnology, CA, USA), anti cytokeratin 18 (Santa Cruz Biotechnology, CA, USA), anti cytokeratin 19 (Santa Cruz Biotechnology, CA, USA), anti cytokeratin 7/17 (Santa Cruz Biotechnology, CA, USA), anti albumin (Rockland Immunochemicals, PA, USA), anti alpha-fetoprotein (Monosan Europa, Netherlands). After five washes, the membranes have been incubated with the corresponding secondary antibodies (1:1000) conjugated to horseradish peroxidase (HRP, SantaCruz Biotechnologies Inc., Santa Cruz, Calif., USA) for 1 hour at room temperature.
(§3) Cells in suspension have been incubated with […] MitoTracker Red for 10 minutes at 37° C. […] After three washes in PBS, the cells have been resuspended in a solution of PBS and 0.1% Triton for 1 hour at 4° C. After three washes in PBS, the cells have been seeded onto slide covers and the liquid allowed to evaporate-off in air. The cells have been blocked with 20% normal goat serum for one hour, then incubated for 30 minutes with the following fluorescein isothiocyanate (FITC) conjugated anti-human monoclonal antibodies: anti-CD 34 (Santa Cruz Biotechnology, CA, USA), anti-CD 14 (Santa Cruz Biotechnology, CA, USA), anti-CD 45 (Santa Cruz Biotechnology, CA, USA), anti-CD 71 (Santa Cruz Biotechnology, CA, USA), anti-CD 90 (Santa Cruz Biotechnology, CA, USA), anti-CD 29 (Santa Cruz Biotechnology, CA, USA), anti-CD 105 (Santa Cruz Biotechnology, CA, USA), anti CD 117/c-KIT (Santa Cruz Biotechnology, CA, USA), anti c-KIT (Santa Cruz Biotechnology, CA, USA), anti c-MET (Santa Cruz Biotechnology, CA, USA), anti cytokeratin 7 (Santa Cruz Biotechnology, CA, USA), anti cytokeratin 8 (Santa Cruz Biotechnology, CA, USA), anti cytokeratin 18 (Santa Cruz Biotechnology, CA, USA), anti cytokeratin 19 (Santa Cruz Biotechnology, CA, USA), anti cytokeratin 7/17 (Santa Cruz Biotechnology, CA, USA), anti albumin (Rockland Immunochemicals, PA, USA), anti alpha-fetoprotein (Monosan Europa, Netherlands). […]

THP-1 cells (PSC-THP1) = experiment: Phenotypic analysis (Western blotting, immunofluorescence) of PSC-THP1 stimulated towards hepatocytic type + parasympatholytic; format: cell-based, human; parameters: key to expression of CD34: −−−−− = absence of any fluorescence; + = 1-5 fluorescent cells per optical field; ++ = 6-10 fluorescent cells per optical field; +++ = 10-20 fluorescent cells per optical field; ++++ = 20-50 fluorescent cells per optical field; +++++ > 50 fluorescent cells per optical field; settings: PSC-THP1 Hepatocytic type + parasympath. (HGF medium + 0.2 μg/mL scopolamine)
Description: as §1, §2, §3

[2] = system: Human mesenchymal pluripotent stem cells (MSCs); experiment: Phenotypic analysis (Western blotting, immunofluorescence) of mesenchymal cells stimulated towards hepatocytic type + parasympatholytic; format: cell-based; settings: Mesenchymal cells Hepatocytic type + parasympath. (HGF medium + 0.2 μg/mL scopolamine)
Text: Human mesenchymal pluripotent stem cells (MSCs, mesenchymal Stem Cells) have been extracted from samples of bone marrow (BM) taken from the femoral head (spongy tissue and bone marrow) during complete hip-replacement surgery. The nucleated cells have been separated by means of a density gradient (Ficoll-Paque, Amersham) and resuspended in low-glucose Dulbecco's modified Eagle's medium (DMEM-LG, Gibco, Grand Island, N.Y., USA) supplemented with 10% foetal bovine serum (FBS, Sigma), 10 U/mL penicillin G, and 40 μg/mL gentamycin. After 24 hours in culture, the medium, along with any cells in suspension, has been removed by aspiration and fresh medium added onto the adhered cells. The cells have been grown in 75 cm^2 flasks in an incubator with 5% CO2 at a temperature of 37° C. When the cells reach 80% confluence, they are detached using trypsin-EDTA (5 minutes incubation at 37° C. followed by the addition of 5 mL of pure FBS, and the detached cells in suspension are harvested), washed twice by centrifugation at 160 g for 7 minutes at 37° C. in DMEM-LG medium (Gibco; Grand Island, N.Y., USA) free of any supplements. The cells in the pellets thus obtained are resuspended at a concentration of 1×10^6 in fresh DMEM-LG medium (Gibco; Grand Island, N.Y., USA) supplemented with 10% foetal bovine serum (FBS, Sigma), 10 U/mL penicillin G, and 40 μg/mL gentamycin. The cells are reseeded after 1:4 dilution (final concentration 2.5×10^4). In this study, cells after the third passage in continuous culture have been used.
As described above in detail, every seventh day of incubation samples of all confluent MSC and SynC cells have been subjected to immunofluorescence testing of samples adhered onto sell culture slides.
Furthermore, every seventh day of incubation, samples of the same cells have been detached using trypsin-EDTA (5 minutes at a temperature of 37° C. followed by the addition of 5 mL of pure FBS and the detached cells in suspension harvested) and washed twice by centrifugation at 160 g for 7 minutes at 37° C. in DMEM-LG (Gibco; Grand Island, N.Y., USA) without any supplements.
Western blotting first makes use of denaturing electrophoresis (SDS-PAGE) in order to separate the various proteins according to molecular weight, by cancelling out the charges on the amino acids which might influence migration. The cell samples, suspended in lysis buffer (1% SDS, 30 mM Tris pH 6.8, 5% glycerol) to which protease inhibitors (Protease Inhibitor Cocktail, Calbiochem, San Diego, Calif., USA) have been added, have been incubated for 30 minutes at 4° C. The lysates thus obtained have been centrifuged at 12,000 rpm for 20 minutes at 4° C. and the supernatants collected; the protein concentrations of the samples have been measured using the Bio-Rad method (Benchmark Plus assay, Bio-Rad). Prior to electrophoresis, the samples have been boiled for 5 minutes in the presence of beta-mercaptoethanol and bromophenol blue. The samples have been subjected to electrophoresis on a 12% gel (SDS-PAGE) and then transferred onto a PVDF membrane (Perkin Elmer Inc.). […]

Synovial cells (SynCs) = experiment: Phenotypic analysis (Western blotting, immunofluorescence) of synovial cells stimulated towards hepatocytic type + parasympatholytic; format: cell-based, human; settings: Synovial cells Hepatocytic type + parasympath. (HGF medium + 0.2 μg/mL scopolamine)
Description: Synovial cells (SynCs) have been obtained from patients during exeresis and curettage of the synovial membrane inside the femoral-tibial joint cavity. Fresh synovial tissue sections have been disaggregated in collagenase (10 μg per mL of medium, Sigma) for two hours at 37° C. The pellet, washed twice in DMEM-LG (Gibco; Grand Island, N.Y., USA), free of any supplements, by centrifugation at 160 g for 10 minutes and then resuspended in complete low-glucose Dulbecco's modified Eagle's medium ([DMEM-LG] GIBCO; Grand Island, N.Y., USA) supplemented with 10% foetal bovine serum ([FBS] Sigma), 10 U/mL penicillin G, and 40 μg/mL gentamycin, is finally seeded into 75 cm^2 flasks and incubated in 5% CO2 at a temperature of 37° C. After 24 hours, the medium, along with any cells still in suspension, has been aspirated off and fresh medium (DMEM-LG, Gibco; Grand Island, N.Y., USA, supplemented with 10% FBS, Sigma, 10 U/mL penicillin G, and 40 μg/mL gentamycin) has been added over the adhered cells. The cells have been grown in 75 cm^2 flasks in an incubator with 5% CO2 at a temperature of 37° C. When the cells reach 80% confluence, they are detached using trypsin-EDTA (5 minutes incubation at 37° C. followed by the addition of 5 mL of pure FBS, and the detached cells in suspension are harvested), washed twice by centrifugation at 160 g for 7 minutes at 37° C. in DMEM-LG medium (Gibco; Grand Island, N.Y., USA) free of any supplements. The cells in the pellets thus obtained are resuspended at a concentration of 1×10^6 in fresh DMEM-LG medium (Gibco; Grand Island, N.Y., USA) supplemented with 10% foetal bovine serum ([FBS] Sigma), 10 U/mL penicillin G, and 40 μg/mL gentamycin. The cells have been reseeded after 1:4 dilution (final concentration 2.5×10^4). In this study, cells after the second passage in continuous culture have been used.
As described above in detail, every seventh day of incubation samples of all confluent MSC and SynC cells have been subjected to immunofluorescence testing of samples adhered onto sell culture slides. […]
Western blotting first makes use of denaturing electrophoresis (SDS-PAGE) in order to separate the various proteins according to molecular weight, by cancelling out the charges on the amino acids which might influence migration. […] The lysates thus obtained have been centrifuged at 12,000 rpm for 20 minutes at 4° C. and the supernatants collected; the protein concentrations of the samples have been measured using the Bio-Rad method (Benchmark Plus assay, Bio-Rad). […]

SMILES: CN1[C@@H]2C[C@@H](OC(=O)[C@H](CO)c3ccccc3)C[C@H]1[C@@H]1O[C@@H]12 [scopolamine, [7(S)-(1α,2β,4β,5α,7β)]-α-(hydroxymethyl)acid benzenacetic-9-methyl-3-oxa-9-azatricyclo[3.3.1.02,4]non-7-yl-ester]
- expression of CD14 [1]: + (+ = 1-5 fluorescent cells per optical field)
- expression of CD34 [1]: −−−−−
- expression of Cytokeratin 7 [1]: +++++ (+++++ > 50 fluorescent cells per optical field)
- expression of Cytokeratin 8 [1]: ++++ (++++ = 20-50 fluorescent cells per optical field)
- expression of Cytokeratin 18 [1]: +++ (+++ = 10-20 fluorescent cells per optical field)
- expression of Cytokeratin 19 [1]: +++++ (+++++ > 50 fluorescent cells per optical field)
- expression of Cytokeratins 7/17 [1]: ++++ (++++ = 20-50 fluorescent cells per optical field)
- expression of Human albumin [1]: +++++ (+++++ > 50 fluorescent cells per optical field)
- expression of alpha-fetoprotein [1]: ++ (++ = 6-10 fluorescent cells per optical field)
- expression of c-KIT [1]: + (+ = 1-5 fluorescent cells per optical field)
- expression of c-Met [1]: ++ (++ = 6-10 fluorescent cells per optical field)
- expression of CD14 (THP-1 cells (PSC-THP1)): + (+ = 1-5 fluorescent cells per optical field)
- expression of CD34 (THP-1 cells (PSC-THP1)): −−−−−
- expression of Cytokeratin 7 (THP-1 cells (PSC-THP1)): +++++ (+++++ > 50 fluorescent cells per optical field)
- expression of Cytokeratin 8 (THP-1 cells (PSC-THP1)): ++++ (++++ = 20-50 fluorescent cells per optical field)
- expression of Cytokeratin 18 (THP-1 cells (PSC-THP1)): +++ (+++ = 10-20 fluorescent cells per optical field)
- expression of Cytokeratin 19 (THP-1 cells (PSC-THP1)): +++++ (+++++ > 50 fluorescent cells per optical field)
- expression of Cytokeratins 7/17 (THP-1 cells (PSC-THP1)): ++++ (++++ = 20-50 fluorescent cells per optical field)
- expression of Human albumin (THP-1 cells (PSC-THP1)): +++++ (+++++ > 50 fluorescent cells per optical field)
- expression of alpha-fetoprotein (THP-1 cells (PSC-THP1)): ++ (++ = 6-10 fluorescent cells per optical field)
- expression of c-KIT (THP-1 cells (PSC-THP1)): + (+ = 1-5 fluorescent cells per optical field)
- expression of c-Met (THP-1 cells (PSC-THP1)): ++ (++ = 6-10 fluorescent cells per optical field)
- expression of CD29 [2]: + (+ = 1-5 fluorescent cells per optical field)
- expression of CD71 [2]: ++ (++ = 6-10 fluorescent cells per optical field)
- expression of CD90 [2]: + (+ = 1-5 fluorescent cells per optical field)
- expression of CD105 [2]: + (+ = 1-5 fluorescent cells per optical field)
- expression of Human albumin [2]: ++ (++ = 6-10 fluorescent cells per optical field)
- expression of alpha-fetoprotein [2]: + (+ = 1-5 fluorescent cells per optical field)
- expression of c-KIT [2]: + (+ = 1-5 fluorescent cells per optical field)
- expression of CD71 (Synovial cells (SynCs)): ++ (++ = 6-10 fluorescent cells per optical field)
- expression of Human albumin (Synovial cells (SynCs)): +++ (+++ = 10-20 fluorescent cells per optical field)
- expression of alpha-fetoprotein (Synovial cells (SynCs)): + (+ = 1-5 fluorescent cells per optical field)
- expression of c-KIT (Synovial cells (SynCs)): + (+ = 1-5 fluorescent cells per optical field)
